Key:
EL4 tumor cells = assay: EL4 parent tumor growth (negative control tumor) after intravaginal immunization; type: in vivo, C57BL/6 mice; conditions: SIINFEKL in acetone and dibutyl phthalate intravaginally; EL4 lacks ovalbumin
Excerpt: (§1) The mucous membranes lack the tough barrier posed by the stratum corneum of the skin. […] The EL4 parent tumor cell line, lacking chicken ovalbumin, was used as a negative control; no immunity against the EL4 tumor cells was seen. Thus, the inventors' hypothesis regarding penetration of the stratum corneum was confirmed; the […] peptide was not effectively reaching the immature dendritic cells, known as Langerhans cells, underlying the stratum corneum.

E.G7-OVA tumor cells = assay: E.G7-OVA tumor growth after immunization with tumor antigen and migration inducer; type: in vivo, C57BL/6 mice
Excerpt: The tumor cell, E.G7-OVA, is the C57BL/6 EL4 thymoma transfected with the complete gene for chicken ovalbumin (OVA). The transfected cell line expresses OVA protein, which is also processed naturally by E.G7-OVA cells into an eight amino acid peptide, OVA257-264, with the sequence […]. […] Based on the positive results using FITC, the inventors followed a similar protocol in an attempt to induce immunity to the E.G7-OVA tumor by topical administration of the well-characterized, synthetic […] tumor-associated peptide.
C57BL/6 mice were treated as follows: 1) shaving alone; 2) topical administration of acetone and dibutyl phthalate; 3) topical administration of […] (240 μg/ml) in DMSO diluted in PBS, followed in 5 hours by acetone and dibutyl phthalate; and 4) topical administration of […] (240 μg/ml) in acetone and dibutyl phthalate. All mice were subsequently injected subcutaneously with 5×10^5 E.G7-OVA cells (5-times the minimal tumorogenic dose). Tumor-specific immunity was monitored by measuring the size of the developing tumor.
as §1
To enhance the effectiveness of cutaneous topical administration of peptide, […] was dissolved in DMSO and applied to the skin without further dilution. Dibutyl phthalate in a 50:50 mixture with acetone was applied to the same site 5 hr later. All mice were subsequently injected subcutaneously with 5×10^5 E.G7-OVA cells. The results shown in FIG. 6 indicate that the peptide in concentrated DMSO was apparently able to traverse the stratum corneum, effectively gaining access to the epidermal Langerhans cells. […] Thus, the tumor-specific peptide, […], in concentrated DMSO, penetrated the stratum corneum in sufficient concentration to be incorporated into the MHC class I molecule K^b on epidermal Langerhans cells, and in the presence of the migration inducer, dibutyl phthalate, was effectively presented to CD8+ CTLs in the draining lymph nodes.
To confirm the immunogenicity of the disclosed treatment, groups of 10 C57BL/6 mice were injected with 50 μl of 1.25 mM OVA protein in HBSS, with HBSS alone, or with nothing. This was followed an hour later by topical application of DBP in acetone or with nothing. One month later, the mice were inoculated subcutaneously with 5×10^5 EL4 tumor cells or with 5×10^5 E.G7-OVA tumor cells and subsequent tumor growth was measured.

Question: For “SIINFEKL [eight amino acid peptide OVA257-264 of chicken ovalbumin, tumor-associated peptide antigen presented by K^b]”, which “immunity against EL4 tumor cells” value (EL4 tumor cells) is on record?
Answer: no immunity

Question: What about the “protection against E.G7-OVA tumor” value (E.G7-OVA tumor cells; SIINFEKL in acetone and dibutyl phthalate applied to the vaginal epithelium (FIG. 5)) of the same sequence?
Answer: protection against the tumor was induced

Question: And the “established E.G7-OVA tumors” value (E.G7-OVA tumor cells; SIINFEKL in undiluted DMSO on skin, dibutyl phthalate 50:50 acetone 5 hr later (FIG. 6))?
Answer: diminished by 16 days post-inoculation

Question: And the E.G7-OVA tumor growth (E.G7-OVA tumor cells; SIINFEKL in undiluted DMSO on skin, dibutyl phthalate 50:50 acetone 5 hr later, 5×10^5 cells s.c. (FIG. 6))?
Answer: suppressed after 6 to 9 days

Question: What about the “inhibition of E.G7-OVA tumor cell growth” value (E.G7-OVA tumor cells; cutaneous topical SIINFEKL 240 μg/ml in DMSO diluted in PBS then acetone and dibutyl phthalate, or in acetone and dibutyl phthalate, 5×10^5 cells s.c. (FIG. 4)) of the same sequence?
Answer: none of the treatment protocols were effective

From US7229621B2, “Method to enhance the immunogenicity of an antigen” (Torrey Pines Institute for Molecular Studies, priority 1998, dated 2007)
